# How the values were obtained:
# Assay in all cases: Cancer cell growth, Cell Titer-Glo
# Format in all cases: cell-based
# [1] = test system: human T-cell lymphoma cells PF-382; settings: PF-382, 72 hrs, read-out: Half inhibitory concentration IC50
# Description: (§1) We further assessed the selectivity of Compound 1 to inhibit the proliferation of cancer cells, by testing the effect of Btk inhibitor on the growth of cancer cells. In the example, we used B-lymphoma cell Ramos, cervical cancer cells HeLa, prostate cancer cells DU145, RV-1 and C4-2, colon cancer cells HCT116, blood cancer cells K562, B-cell lymphoma cells U2932, diffuse large B-cell lymphoma cells OCI-LY10, diffuse histiocytic lymphoma cells SU-DHL-2, diffuse large B-cell lymphoma cells TMD8, human non-small cell lung cancer cells H1975 (expressing EGFR L858R/T790M double mutant gene), human lung adenocarcinoma cells A549 (expressing wild-type EGFR gene), human non-small cell lung cancer cells H460 (expressing wild-type EGFR gene), mantel cell lymphoma (MCL) cells Z-138, EB virus infected human peripheral lymphocyte cells JVM-2, MCL cells REC-1, leukemia cells AML-3, acute promyelocytic leukemia cell line NB-4(Lu+), MDS-RAEB (myelodysplastic syndrome-excessive blasts) cell line SKM-1 human leukemia cell Nomo-1, human B-cell leukemia cell line NALM6, human leukocyte leukemia cells HEL, human T-cell lymphoma cells PF-382, acute myelocytic leukemia (AML) cell line MOLM14, AML cell line MOLM13, human Burkitt's lymphoma cells Namalwa, mouse pro-B cells BaF3, all of where were purchased from ATCC. Also used were mouse TEL-EGFR-BaF3 (stably expressing TEL-EGFR activated kinase), mouse TEL-EGFR/T790-BaF3 cells (stably expressing TEL-EGFR-T790M activated mutant kinase), mouse TEL-EGFR/L858R-BaF3 cells (stably expressing TEL-EGFR-L858R activated mutant kinase), mouse TEL-EGFR/T790/L858R-BaF3 (stably expressing TEL-EGFR-T790M/L858R activated mutant kinase), mouse TEL-BMX-BaF3 cells (stably expressing TEL-BMX activated kinase), mouse TEL-JAK1-BaF3 cells (stably expressing TEL-JAK1 activated kinase), mouse TEL-JAK2-BaF3 cells (stably expressing TEL-JAK2 activated kinase), mouse TEL-JAK3-BaF3 cells (stably expressing TEL-JAK3 activated kinase), where were all established by our laboratory via the following method: the kinase domain sequences of human EGFR, BMX, JAK1, JAK2, JAK3 were amplified respectively by PCR, and these kinase were inserted into the MSCV-Puro vectors with N-terminal TEL segment (Clontech); if there was a mutation, the mutation of the corresponding site was conducted by Site-Directed Mutagenesis kit (Stratagene); the resultants were stably transfected into mouse BaF3 cells by the means of retrovirus, and the IL-3 growth factors were removed, and eventually the EGFR, BMX, JAK1, JAK2, JAK3-transferred protein dependent cell lines were obtained.
# (§2) In the example, different concentrations (0.000508 μM, 0.00152 μM, 0.00457 μM, 0.0137 μM, 0.0411 μM, 0.123 μM, 0.370 μM, 1.11 μM, 3.33 μM, 10 μM) of Compound 1 and Compound 19 were added into above cells, and were incubated for 72 hrs. The number of viable cells was determined by quantitating ATP in viable cells using Cell Titer-Glo® (Promega, U.S.) chemiluminescence cell viability assay kit.
# [2] = test system: EB virus infected human peripheral lymphocyte cells JVM-2; settings: JVM-2, 72 hrs, read-out: Half inhibitory concentration IC50
# Description: as §1, §2
# [3] = test system: human non-small cell lung cancer cells H460 (expressing wild-type EGFR gene); settings: NCI-H460, H460, 72 hrs, read-out: Half inhibitory concentration IC50
# Description: as §1, §2
# [4] = test system: human Burkitt's lymphoma cells Namalwa; settings: Burkitts lymphoma cell, 72 hrs, read-out: Half inhibitory concentration IC50
# Description: as §1, §2
# [5] = test system: human non-small cell lung cancer cells H1975 (expressing EGFR L858R/T790M double mutant gene); settings: NCI-H1975, H1975, 72 hrs, read-out: Half inhibitory concentration IC50
# Description: as §1, §2
# [6] = test system: mantel cell lymphoma (MCL) cells Z-138; settings: Homo sapiens; Z-138, 72 hrs; read-out: Half inhibitory concentration IC50
# Description: as §1, §2
# [7] = test system: prostate cancer cells C4-2; settings: C4-2, 72 hrs; read-out: Half inhibitory concentration IC50
# Description: as §1, §2
# [8] = test system: human leukocyte leukemia cells HEL; settings: 72 hrs, read-out: Half inhibitory concentration IC50
# Description: as §1, §2
# MDS-RAEB cell line SKM-1 = settings: Homo sapiens; SKM-1, 72 hrs; read-out: Half inhibitory concentration IC50
# Description: as §1, §2
# [9] = test system: diffuse large B-cell lymphoma cells OCI-LY10; settings: Homo sapiens; OCI-LY10, 72 hrs; read-out: Half inhibitory concentration IC50
# Description: as §1, §2
# [10] = test system: prostate cancer cells RV-1; settings: RV-1, 72 hrs; read-out: Half inhibitory concentration IC50
# Description: as §1, §2
# [11] = test system: acute promyelocytic leukemia cell line NB-4(Lu+); settings: 72 hrs, read-out: Half inhibitory concentration IC50
# Description: as §1, §2
# [12] = test system: human lung adenocarcinoma cells A549 (expressing wild-type EGFR gene); settings: A549, 72 hrs, read-out: Half inhibitory concentration IC50
# Description: as §1, §2
# AML cell line MOLM13 = settings: Homo sapiens, MOLM-13; MOLM13, 72 hrs; read-out: Half inhibitory concentration IC50
# Description: as §1, §2
# [13] = test system: human B-cell leukemia cell line NALM6; settings: NALM-6, NALM6, 72 hrs, read-out: Half inhibitory concentration IC50
# Description: as §1, §2
# [14] = test system: diffuse large B-cell lymphoma cells TMD8; settings: Homo sapiens; TMD8, 72 hrs; read-out: Half inhibitory concentration IC50
# Description: as §1, §2
# [15] = test system: B-cell lymphoma cells U2932; settings: Homo sapiens; U2932, 72 hrs; read-out: Half inhibitory concentration IC50
# Description: as §1, §2
# leukemia cells AML-3 = settings: AML3; AML-3, 72 hrs; read-out: Half inhibitory concentration IC50
# Description: as §1, §2
# [16] = test system: cervical cancer cells HeLa; settings: Homo sapiens, 72 hrs, read-out: Half inhibitory concentration IC50
# Description: as §1, §2
SMILES,IC50 [1],IC50 [2],IC50 [3],IC50 [4],IC50 [5],IC50 [6],IC50 [7],IC50 [8],IC50 (MDS-RAEB cell line SKM-1),IC50 [9],IC50 [10],IC50 [11],IC50 [12],IC50 (AML cell line MOLM13),IC50 [13],IC50 [14],IC50 [15],IC50 (leukemia cells AML-3),IC50 [16]
"CCC(=O)Nc1cc(-n2c(=O)ccc3cnc4ccc(-n5cccn5)cc4c32)ccc1C [Compound 19, N-(2-methyl-5-(2-oxo-9-(1H-pyrazol-1-yl)benzo[H][1,6]naphthyridin-1(2H)-yl)phenyl) propionamide]",> 10 µM,> 10 µM,> 10 µM,> 10 µM,> 10 µM,> 10 µM,> 10 µM,> 10 µM,> 10 µM,> 10 µM,> 10 µM,> 10 µM,> 10 µM,> 10 µM,> 10 µM,> 10 µM,> 10 µM,> 10 µM,> 10 µM
"C=CC(=O)Nc1cc(-n2c(=O)ccc3cnc4ccc(-n5cccn5)cc4c32)ccc1C [Compound 1, N-(2-methyl-5-(2-oxo-9-(1H-pyrazol-1-yl)benzo[H][1,6]naphthyridin-1(2H)-yl)phenyl)acrylamide]",3.49 µM,3.4 µM,> 10 µM,4.5 µM,3.81 µM,8.5 µM,> 10 µM,1.8 µM,1.5 µM,> 10 µM,> 10 µM,3.7 µM,3.76 µM,0.59 µM,1.17 µM,3.43 µM,1.15 µM,7.3 µM,> 10 µM

# — patent US9814709B2, “Bruton's tyrosine kinase inhibitor” (HEFEI INSTITUTES OF PHYSICAL SCIENCE, CHINESE ACADEMY OF …, priority 2014, dated 2017)
